Measurements taken from PMC4033661 (Journal of medicinal chemistry, 2014).
≈ marks a conversion by molar mass, not a printed value. Entries after “also recorded” stand apart in the source; their conditions may differ. One block for each molecule: values may come before it.

Legend:
HT22 cells = test: HT22 cell culture assay, glutamate-induced cell death; type: cell-based, mouse
human 12/15-LOX = conditions: read-out: 12/15-LOX IC50; cited from earlier work
[1] = target: T1, human platelet 12-lipoxygenase (12-LOX) (Homo sapiens, UniProt P18054); test: Lipoxygenase UV-Vis assay, 12-LOX selectivity
T1 sequence (P18054 1-663): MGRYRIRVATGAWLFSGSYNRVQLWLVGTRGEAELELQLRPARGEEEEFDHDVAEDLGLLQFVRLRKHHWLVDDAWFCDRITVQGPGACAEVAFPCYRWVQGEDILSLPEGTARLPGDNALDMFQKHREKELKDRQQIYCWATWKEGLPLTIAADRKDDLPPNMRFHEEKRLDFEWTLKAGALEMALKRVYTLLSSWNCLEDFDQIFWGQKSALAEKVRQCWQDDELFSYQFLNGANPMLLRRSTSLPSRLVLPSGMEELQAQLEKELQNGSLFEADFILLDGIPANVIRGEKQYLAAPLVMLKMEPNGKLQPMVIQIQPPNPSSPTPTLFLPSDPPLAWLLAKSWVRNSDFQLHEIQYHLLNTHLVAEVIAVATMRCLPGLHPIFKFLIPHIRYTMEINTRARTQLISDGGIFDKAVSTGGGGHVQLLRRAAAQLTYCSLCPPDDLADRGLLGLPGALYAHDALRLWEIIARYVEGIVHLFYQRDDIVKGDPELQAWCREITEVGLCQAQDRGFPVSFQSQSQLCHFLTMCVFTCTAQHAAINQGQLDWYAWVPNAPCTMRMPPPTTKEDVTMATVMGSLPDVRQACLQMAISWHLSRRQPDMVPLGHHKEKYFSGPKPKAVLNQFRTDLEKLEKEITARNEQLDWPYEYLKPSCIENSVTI

[2] = Aqueous kinetic solubility in PBS buffer; type: physicochemical; conditions: pH 7.4
[3] = Microsomal stability, rat; type: in vitro ADME; conditions: rat liver microsomes, in the presence of NADPH
[4] = Microsomal stability, mouse; type: in vitro ADME; conditions: mouse liver microsomes, in the presence of NADPH
[5] = Stability in aqueous solutions; type: physicochemical; conditions: pH 2, pH 7.4, pH 9

Compound: CNc1nc(C#N)c(-c2cccc3ccccc23)o1 [Compound 34]
cellular protection in HT22 cells (HT22 cells; 5 μM concentration, glutamate-treated): did not protect; also recorded: does not protect

Compound: O=c1cc(-c2ccccc2)oc2cc(O)c(O)c(O)c12 [baicalein]
IC50 (human 12/15-LOX): 1600 nM

IC50 [1]: > 50000 nM
Compound: CNc1sc(-c2cccc3ccccc23)nc1C#N [Compound 32, 5-(methylamino)-2-(naphthalen-1-yl)thiazole-4-carbonitrile]

solubility kinetic [2]: 1.2 µM (≈ 0.299 µg/mL) | Microsomal Stability T1/2 [3]: 18 (rat) min | Microsomal Stability T1/2 [4]: 5.5 (mouse) min | stability in aqueous solutions [5]: stable
Compound: CNc1oc(-c2cccc3ccccc23)nc1C#N [Compound 1, 5-(Methylamino)-2-(naphthalen-1-yl)oxazole-4-carbonitrile]
protection against oxidative glutamate toxicity (HT22 cells; HT22 cells, 5 mM glutamate, increasing amounts of compound): protective; also recorded: dose-dependent protection

Compound: C[C@H]1[C@H](C)CC[C@]2(C)CC[C@]3(C)C(=CC[C@@H]4[C@@]5(C)CC[C@@H](O)[C@](C)(C(=O)O)[C@@H]5CC[C@]43C)[C@H]12 [boswellic acid]
IC50 (human 12/15-LOX): 1000 nM
